According to patent US20250100968A1, “BICYCLIC-HETEROCYCLE DERIVATIVES AND RELATED USES” (CENTESSA PHARMACEUTICALS (UK) LIMITED, priority 2022, published 2025):

Biological target: T1, human orexin type 2 receptor (hOX2R) (Homo sapiens, UniProt O43614)
T1 sequence (O43614 1-444): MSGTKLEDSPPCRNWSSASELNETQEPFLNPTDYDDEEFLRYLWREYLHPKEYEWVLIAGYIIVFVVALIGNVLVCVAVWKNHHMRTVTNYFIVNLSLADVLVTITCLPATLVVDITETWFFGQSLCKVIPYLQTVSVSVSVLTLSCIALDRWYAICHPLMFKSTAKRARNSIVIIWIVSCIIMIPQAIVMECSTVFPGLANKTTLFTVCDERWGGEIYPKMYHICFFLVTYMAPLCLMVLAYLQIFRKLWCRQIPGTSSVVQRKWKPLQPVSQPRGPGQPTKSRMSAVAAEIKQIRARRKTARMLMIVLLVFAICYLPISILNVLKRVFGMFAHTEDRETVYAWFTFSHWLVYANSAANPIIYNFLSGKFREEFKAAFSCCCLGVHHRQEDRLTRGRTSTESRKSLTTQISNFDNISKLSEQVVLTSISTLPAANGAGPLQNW
Assay: cell-based
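Further: agonist activity in CHO cells stably expressing hOX2R, intracellular Ca2+ via Calcium 5 dye fluorescence area over 2 min, buffer-only as 0% and 10 nM orexin A as 100%.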

SMILES	EC50 [nM]
O=C([C@H]1CCCO1)N1CC2(CC2)[C@H](NS(=O)(=O)CF)[C@@H]1Cc1cccc(-c2cc(F)cc(F)c2)c1F [compound 42, 1-fluoro-N-((6S,7S)-5-((R)-tetrahydrofuran-2-carbonyl)-6-((2,3′,5′-trifluoro-[1,1′-biphenyl]-3-yl)methyl)-5-azaspiro[2.4]heptan-7-yl)methanesulfonamide]	1 to 10
O=C(NCC(F)F)N1CC2(CC2)[C@H](NS(=O)(=O)C(F)F)[C@@H]1Cc1cc(F)cc(-c2cc(F)cc(F)c2)c1F [compound 25, (6S,7S)-N-(2,2-difluoroethyl)-7-((difluoromethyl)sulfonamido)-6-((2,3′,5,5′-tetrafluoro-[1,1′-biphenyl]-3-yl)methyl)-5-azaspiro[2.4]heptane-5-carboxamide]	0.0631 to 1
C[C@@](O)(C(=O)N1CC2(CC2)[C@H](NS(=O)(=O)C(F)F)[C@@H]1Cc1cccc(-c2ccccc2)c1F)C1CC1 [compound 75, N-((6S,7S)-5-((S)-2-cyclopropyl-2-hydroxypropanoyl)-6-((2-fluoro-[1,1′-biphenyl]-3-yl)methyl)-5-azaspiro[2.4]heptan-7-yl)-1,1-difluoromethanesulfonamide]	1 to 10
O=C([C@H]1CCO1)N1CC2(CC2)[C@H](NS(=O)(=O)C2(F)CC2)[C@@H]1Cc1cccc(-c2cc(F)cc(F)c2)c1F [compound 36, 1-fluoro-N-((6S,7S)-5-((R)-oxetane-2-carbonyl)-6-((2,3′,5′-trifluoro-[1,1′-biphenyl]-3-yl)methyl)-5-azaspiro[2.4]heptan-7-yl)cyclopropane-1-sulfonamide]	0.0631 to 1
N#CC1(C(=O)N2CC3(CC3)[C@H](NS(=O)(=O)CF)[C@@H]2Cc2cc(F)cc(-c3ccccc3)c2F)CCC1 [compound 13, N-((6S,7S)-5-(1-cyanocyclobutane-1-carbonyl)-6-((2,5-difluoro-[1,1′-biphenyl]-3-yl)methyl)-5-azaspiro[2.4]heptan-7-yl)-1-fluoromethanesulfonamide]	0.0631 to 1
O=C([C@@H](O)C1CC1)N1CC2(CC2)[C@H](NS(=O)(=O)C(F)F)[C@@H]1Cc1cc(F)cc(-c2ccccc2)c1F [compound 27, N-((6S,7S)-5-((S)-2-cyclopropyl-2-hydroxyacetyl)-6-((2,5-difluoro-[1,1′-biphenyl]-3-yl)methyl)-5-azaspiro[2.4]heptan-7-yl)-1,1-difluoromethanesulfonamide]	0.0631 to 1
CC(C)(F)CNC(=O)N1CC2(CC2)[C@H](NS(=O)(=O)C(F)F)[C@@H]1Cc1cccc(-c2cccc(F)c2)c1F [compound 71, (6S,7S)-6-((2,3′-difluoro-[1,1′-biphenyl]-3-yl)methyl)-7-((difluoromethyl)sulfonamido)-N-(2-fluoro-2-methylpropyl)-5-azaspiro[2.4]heptane-5-carboxamide]	0.0631 to 1
C[C@@H](NC(=O)N1CC2(CC2)[C@H](NS(=O)(=O)C(F)F)[C@@H]1Cc1cccc(-c2cc(F)cc(F)c2)c1F)C(F)F [compound 60, (6S,7S)-7-((difluoromethyl)sulfonamido)-N-((R)-1,1-difluoropropan-2-yl)-6-((2,3′,5′-trifluoro-[1,1′-biphenyl]-3-yl)methyl)-5-azaspiro[2.4]heptane-5-carboxamide]	1 to 10
O=C([C@H]1CCO1)N1CC2(CC2)[C@H](NS(=O)(=O)C2(F)CC2)[C@@H]1Cc1cc(F)cc(-c2ccccc2)c1F [compound 87, N-((6S,7S)-6-((2,5-difluoro-[1,1′-biphenyl]-3-yl)methyl)-5-((R)-oxetane-2-carbonyl)-5-azaspiro[2.4]heptan-7-yl)-1-fluorocyclopropane-1-sulfonamide]	1 to 10
COC1CN(C(=O)N2CC3(CC3)[C@H](NS(=O)(=O)CF)[C@@H]2Cc2cc(F)cc(-c3ccccc3)c2F)C1 [compound 59, N-((6S,7S)-6-((2,5-difluoro-[1,1′-biphenyl]-3-yl)methyl)-5-(3-methoxyazetidine-1-carbonyl)-5-azaspiro[2.4]heptan-7-yl)-1-fluoromethanesulfonamide]	1 to 10
CO[C@H](C)C(=O)N1CC2(CC2)[C@H](NS(=O)(=O)C(F)F)[C@@H]1Cc1cccc(-c2cc(F)cc(F)c2)c1F [compound 64, 1,1-difluoro-N-((6S,7S)-5-((R)-2-methoxypropanoyl)-6-((2,3′,5′-trifluoro-[1,1′-biphenyl]-3-yl)methyl)-5-azaspiro[2.4]heptan-7-yl)methanesulfonamide]	1 to 10
N#C[C@@]1(C(=O)N2CC3(CC3)[C@H](NS(=O)(=O)CF)[C@@H]2Cc2cccc(-c3cccc(F)c3)c2F)CCO1 [compound 45, N-((6S,7S)-5-((R)-2-cyanooxetane-2-carbonyl)-6-((2,3′-difluoro-[1,1′-biphenyl]-3-yl)methyl)-5-azaspiro[2.4]heptan-7-yl)-1-fluoromethanesulfonamide]	1 to 10
CC(C)S(=O)(=O)N[C@@H]1[C@H](Cc2cc(F)cc(-c3cc(F)cc(F)c3)c2F)N(C(=O)[C@H]2CCO2)CC12CC2 [compound 20, N-((6S,7S)-5-((R)-oxetane-2-carbonyl)-6-((2,3′,5,5′-tetrafluoro-[1,1′-biphenyl]-3-yl)methyl)-5-azaspiro[2.4]heptan-7-yl)propane-2-sulfonamide]	0.0631 to 1
N#C[C@]1(C(=O)N2CC3(CC3)[C@H](NS(=O)(=O)C(F)F)[C@@H]2Cc2cccc(-c3cccc(F)c3)c2F)CCO1 [compound 53, N-((6S,7S)-5-((S)-2-cyanooxetane-2-carbonyl)-6-((2,3′-difluoro-[1,1′-biphenyl]-3-yl)methyl)-5-azaspiro[2.4]heptan-7-yl)-1,1-difluoromethanesulfonamide]	1 to 10
C[C@H](CF)NC(=O)N1CC2(CC2)[C@H](NS(=O)(=O)CF)[C@@H]1Cc1cccc(-c2cc(F)cc(F)c2)c1F [compound 61, (6S,7S)-7-((fluoromethyl)sulfonamido)-N-((R)-1-fluoropropan-2-yl)-6-((2,3′,5′-trifluoro-[1,1′-biphenyl]-3-yl)methyl)-5-azaspiro[2.4]heptane-5-carboxamide]	0.0631 to 1
N#C[C@]1(C(=O)N2CC3(CC3)[C@H](NS(=O)(=O)CF)[C@@H]2Cc2cc(F)cc(-c3ccccc3)c2F)C[C@H](F)C1 [compound 89, N-((6S,7S)-5-((1r,3S)-1-cyano-3-fluorocyclobutane-1-carbonyl)-6-((2,5-difluoro-[1,1′-biphenyl]-3-yl)methyl)-5-azaspiro[2.4]heptan-7-yl)-1-fluoromethanesulfonamide]	1 to 10
CC(C)NC(=O)N1CC2(CC2)[C@H](NS(=O)(=O)CF)[C@@H]1Cc1cccc(-c2ccccc2)c1F [compound 82, (6S,7S)-6-((2-fluoro-[1,1′-biphenyl]-3-yl)methyl)-7-((fluoromethyl)sulfonamido)-N-isopropyl-5-azaspiro[2.4] heptane-5-carboxamide]	1 to 10
N#C[C@]1(C(=O)N2CC3(CC3)[C@H](NS(=O)(=O)CF)[C@@H]2Cc2cccc(-c3cccc(F)c3)c2F)CCO1 [compound 46, N-((6S,7S)-5-((S)-2-cyanooxetane-2-carbonyl)-6-((2,3′-difluoro-[1,1′-biphenyl]-3-yl)methyl)-5-azaspiro[2.4]heptan-7-yl)-1-fluoromethanesulfonamide]	1 to 10
O=C([C@H]1CCCO1)N1CC2(CC2)[C@H](NS(=O)(=O)C(F)F)[C@@H]1Cc1cccc(-c2cc(F)cc(F)c2)c1F [compound 50, 1,1-difluoro-N-((6S,7S)-5-((R)-tetrahydrofuran-2-carbonyl)-6-((2,3′,5′-trifluoro-[1,1′-biphenyl]-3-yl)methyl)-5-azaspiro[2.4]heptan-7-yl)methanesulfonamide]	1 to 10
CC(F)(F)CNC(=O)N1CC2(CC2)[C@H](NS(=O)(=O)CF)[C@@H]1Cc1cccc(-c2cc(F)cc(F)c2)c1F [compound 38, (6S,7S)-N-(2,2-difluoropropyl)-7-((fluoromethyl)sulfonamido)-6-((2,3′,5′-trifluoro-[1,1′-biphenyl]-3-yl)methyl)-5-azaspiro[2.4]heptane-5-carboxamide]	1 to 10
C[C@@H](C#N)C(=O)N1CC2(CC2)[C@H](NS(=O)(=O)C(F)F)[C@@H]1Cc1cccc(-c2ccccc2)c1F [compound 41, N-((6S,7S)-5-((S)-2-cyanopropanoyl)-6-((2-fluoro-[1,1′-biphenyl]-3-yl)methyl)-5-azaspiro[2.4]heptan-7-yl)-1,1-difluoromethanesulfonamide]	1 to 10
C[C@@](O)(CF)C(=O)N1CC2(CC2)[C@H](NS(=O)(=O)CF)[C@@H]1Cc1cccc(-c2cc(F)cc(F)c2)c1F [compound 83, 1-fluoro-N-((6S,7S)-5-((S)-3-fluoro-2-hydroxy-2-methylpropanoyl)-6-((2,3′,5′-trifluoro-[1,1′-biphenyl]-3-yl)methyl)-5-azaspiro[2.4]heptan-7-yl)methanesulfonamide]	1 to 10
O=C([C@H]1CCO1)N1CC2(CC2)[C@H](NS(=O)(=O)C2(F)CC2)[C@@H]1Cc1cccc(-c2ccccc2)c1F [compound 10, 1-fluoro-N-((6S,7S)-6-((2-fluoro-[1,1′-biphenyl]-3-yl)methyl)-5-((R)-oxetane-2-carbonyl)-5-azaspiro[2.4]heptan-7-yl)cyclopropane-1-sulfonamide]	0.0631 to 1
C[C@@](O)(CF)C(=O)N1CC2(CC2)[C@H](NS(=O)(=O)CF)[C@@H]1Cc1cc(F)cc(-c2ccccc2)c1F [compound 72, N-((6S,7S)-6-((2,5-difluoro-[1,1′-biphenyl]-3-yl)methyl)-5-((S)-3-fluoro-2-hydroxy-2-methylpropanoyl)-5-azaspiro[2.4]heptan-7-yl)-1-fluoromethanesulfonamide]	0.0631 to 1
